{"source": "paper PMC8887546", "about": "“Design and Synthesis of Brain Penetrant Glycopeptide Analogues of PACAP With Neuroprotective Potential for Traumatic Brain Injury and Parkinsonism” (Frontiers in drug discovery, 2022)", "key": {"[1]": {"test_system": "C57BL/6 mice, diffuse TBI", "assay": "Iba1 microglial skeletal analysis after TBI", "assay_type": "in vivo, mouse", "conditions": "10 mg/kg i.p. 30 min prior to TBI, 15 DPI, cortex", "method": "(§1) 30 min prior to TBI or sham injury, mice were randomly assigned to a therapeutic group and received an intraperitoneal injection of 2LS80Mel (10 mg/kg) or sterile saline (0.25 ml). Groups were as follows: TBI-2LS80Mel n = 17; TBI-vehicle n = 17; sham n = 22 (vehicle n = 11, 2LS80Mel n = 11).\n(§2) For injury induction 24 h post-surgery, mice were re-anesthetized with 5% isoflurane delivered for 3 min. The cap was removed from the injury-hub assembly and the dura was visually inspected through the hub to ensure it was intact with no debris. The hub was then filled with normal saline and attached to an extension tube connected to the male end of the fluid percussion device (Custom Design and Fabrication, Virginia Commonwealth University, Richmond, VA). An injury of moderate severity for our injury model (1.4 atm) was administered by releasing the pendulum onto the fluid-filled cylinder following the return of a toe-pinch response. Sham mice underwent the same procedure except the pendulum was not released. Injured mice were monitored for presence of a forearm fencing response and righting reflex times were recorded as indicators of injury severity ([Hosseini and Lifshitz, 2009]). […] After spontaneously righting, mice were placed in a heated recovery cage and monitored until they were ambulatory (approximately 5–15 min) before being returned to their piezoelectric sleep cage (see below). […]"}, "[2]": {"test_system": "C57BL/6 mice, diffuse TBI", "assay": "Plasma cytokine measurement after TBI", "assay_type": "in vivo, mouse", "conditions": "10 mg/kg i.p. 30 min prior to TBI", "method": "as §1\nas §2, with “2009]). The righting reflex time is the total time from the initial impact until the mouse spontaneously rights itself from a supine position. The fencing response is a tonic posturing characterized by extension and flexion of opposite arms that has been validated as an overt indicator of injury severity ([Hosseini and Lifshitz, 2009]). The injury hub was removed, and the brain was inspected for uniform herniation and integrity of the dura. The incision was cleaned with saline and closed using sutures. Moderately brain-injured mice had righting reflex recovery times greater than 4 min and a positive fencing response. Righting reflex times for TBI-2LS80Mel mice were 477.13 ± 83.13 s and the righting reflex times for TBI-vehicle mice were 417.05 ± 107.47 s.” for “2009]).”\nApproximately 75 μl of blood were centrifuged to collect approximately 40 μl of plasma from each animal at 2 and 14 days post-injury ([Saber et al., 2020]). Multiplex cytokine assays (MILLIPLEX MAP Mouse Cytokine/Chemokine Magnetic Bead Panel, Millipore Sigma, Burlington, MA) quantified interleukin (IL)-1β, IL-6, and tumor necrosis factor (TNF)-α in peripheral blood. […] Fluorescent intensity was measured on a Bio-Plex® 200 system (Bio-Rad Laboratories, Hercules, CA) and corresponded to the concentration of each analyte in plasma samples. Duplicate values were averaged and analyzed between groups. […]"}, "human VPAC1 receptor": {"molecular_target": "T1, human VPAC1 receptor (Homo sapiens, UniProt P32241)", "T1 construct": "expressed in transfected cells; host or cells: CHO cells (G418 selection)", "T1 sequence (P32241 31-457)": "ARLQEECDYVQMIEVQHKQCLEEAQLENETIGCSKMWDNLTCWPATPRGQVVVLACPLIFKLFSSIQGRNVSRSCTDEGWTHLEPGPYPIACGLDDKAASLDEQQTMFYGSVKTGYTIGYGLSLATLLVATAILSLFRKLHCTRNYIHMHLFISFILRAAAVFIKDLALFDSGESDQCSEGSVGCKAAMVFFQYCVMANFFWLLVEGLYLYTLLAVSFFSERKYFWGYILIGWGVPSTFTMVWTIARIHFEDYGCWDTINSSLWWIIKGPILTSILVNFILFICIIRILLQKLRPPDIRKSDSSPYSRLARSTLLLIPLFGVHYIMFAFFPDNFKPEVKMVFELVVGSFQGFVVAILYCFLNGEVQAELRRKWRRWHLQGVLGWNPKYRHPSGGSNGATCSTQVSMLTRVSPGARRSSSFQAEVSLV", "assay": "cAMP stimulation in CHO cells expressing VPAC1", "assay_type": "cell-based"}}}
{"smiles": "CC[C@H](C)[C@H](NC(=O)CNC(=O)[C@H](CC(=O)O)NC(=O)[C@H](CO)NC(=O)[C@@H](N)Cc1c[nH]cn1)C(=O)N[C@@H](Cc1ccccc1)C(=O)N[C@H](C(=O)N[C@@H](CC(=O)O)C(=O)N[C@@H](CO)C(=O)N[C@@H](Cc1ccc(O)cc1)C(=O)N[C@@H](CO)C(=O)N[C@@H](CCCNC(=N)N)C(=O)N[C@@H](Cc1ccc(O)cc1)C(=O)N[C@@H](CCCNC(=N)N)C(=O)N[C@@H](CCCCN)C(=O)N[C@@H](CCC(N)=O)C(=O)N[C@@H](CC(C)C)C(=O)N[C@@H](C)C(=O)N[C@H](C(=O)N[C@@H](CCCCN)C(=O)N[C@@H](CCCCN)C(=O)N[C@@H](Cc1ccc(O)cc1)C(=O)N[C@@H](CC(C)C)C(=O)N[C@@H](C)C(=O)N[C@@H](C)C(=O)N[C@H](C(=O)N[C@@H](CC(C)C)C(=O)N[C@@H](CO[C@@H]1O[C@H](CO[C@H]2O[C@H](CO)[C@H](O)[C@H](O)[C@H]2O)[C@@H](O)[C@H](O)[C@H]1O)C(N)=O)C(C)C)C(C)C)[C@@H](C)O", "note": "[Compound 2LS80Mel]", "values": [{"measurement": "Microglial ramification", "setting": "[1]", "value": "no significant differences"}, {"measurement": "Plasma IL-1β", "setting": "[2]; 2 DPI", "value": "no differences"}, {"measurement": "Plasma IL-6", "setting": "[2]; 2 DPI", "value": "no differences"}, {"measurement": "Plasma TNF-α", "setting": "[2]; 2 DPI", "value": "no differences"}, {"measurement": "Peripheral cytokines (IL-1β, IL-6, TNF-α)", "setting": "[2]; 14 DPI, data not shown", "value": "no differences"}]}
{"smiles": "[2H]C([2H])([2H])C([2H])(C([2H])([2H])[2H])[C@]([2H])(NC(=O)[C@H](C)NC(=O)[C@H](C)NC(=O)[C@H](CC(C)C)NC(=O)[C@H](Cc1ccc(O)cc1)NC(=O)[C@H](CCCCN)NC(=O)[C@H](CCCCN)NC(=O)[C@@]([2H])(NC(=O)[C@H](C)NC(=O)[C@H](CC(C)C)NC(=O)[C@H](CCC(N)=O)NC(=O)[C@H](CCCCN)NC(=O)[C@H](CCCNC(=N)N)NC(=O)[C@H](Cc1ccc(O)cc1)NC(=O)[C@H](CCCNC(=N)N)NC(=O)[C@H](CO)NC(=O)[C@H](Cc1ccc(O)cc1)NC(=O)[C@H](CO)NC(=O)[C@H](CC(=O)O)NC(=O)[C@@H](NC(=O)[C@H](Cc1ccccc1)NC(=O)[C@@H](NC(=O)CNC(=O)[C@H](CC(=O)O)NC(=O)[C@H](CO)NC(=O)[C@@H](N)Cc1c[nH]cn1)[C@@H](C)CC)[C@@H](C)O)C([2H])(C([2H])([2H])[2H])C([2H])([2H])[2H])C(=O)N[C@@H](CC(C)C)C(=O)N[C@@H](CO[C@@H]1O[C@H](CO)[C@@H](O[C@@H]2O[C@H](CO)[C@H](O)[C@H](O)[C@H]2O)[C@H](O)[C@H]1O)C(N)=O", "note": "[Compound 2LS98Lac]", "values": [{"measurement": "Emax", "setting": "human VPAC1 receptor; CHO, read-out: VPAC1 Emax", "value": 101, "unit": "%"}, {"measurement": "Receptor selectivity ratio VPAC1/PAC1", "setting": "human VPAC1 receptor; ratio of cAMP EC50 values", "value": 0.63}, {"measurement": "EC50", "setting": "human VPAC1 receptor; read-out: VPAC1 EC50", "value": 0.45, "unit": "nM"}]}
